Reference: US10105367B2, “Therapeutic thiophene-, furan-, and pyridine-fused azolopyrimidin-5-(6h)-ones” (Dart Neuroscience (Cayman) Ltd., priority 2012, dated 2018)

The molecules below were run against human PDE1B (Homo sapiens (Human), UniProt Q01064) (assay: PDE1B inhibitory assay (IMAP TR-FRET)). Conditions: PDE1B pIC50, negative log of half-maximal molar inhibitory concentration; 200 nM FAM-cAMP, Calmodulin, CaCl2.
Protocol: PDE1B inhibition was determined by an IMAP TR-FRET assay.
After a brief centrifugation, the plates were incubated for 30 minutes at room temperature. The assay was terminated by adding 5 μL IMAP binding reagent/Tb complex (Molecular Devices, Sunnyvale, Calif.) to each well.
Plates were incubated 1 hour at room temperature and read on a Viewlux multimode plate reader (Perkin Elmer). The instrument was set to excite using the DUG11 filter and measure using 490/10 nm and 520/10 nm filters. Ratios of acceptor and donor were then calculated.
For IC50 calculations, the values of % efficacy versus a series of compound concentrations were then plotted using non-linear regression analysis of sigmoidal dose-response curves generated with the equation Y=B+(T−B)/1+10((Log EC50−X)×Hill Slope), where Y=percent activity, B=minimum percent efficacy, T=maximum percent efficacy, X=logarithm of compound and Hill Slope=slope factor or Hill coefficient. The IC50 value was determined by the concentration causing a half-maximal percent efficacy.
Molecule O=c1n(Cc2cccc(Cl)c2)c2sccc2c2ncnn12 [Example 2] has an IC50 of 1000 to 10000 nM. COc1ccc(Cn2c(=O)n3ncnc3c3c(C)c(CN4CCNCC4)sc32)cc1 [Example 49] showed an IC50 of 100 to 1000 nM. Molecule O=c1n(Cc2ccc(Cl)cc2)c2sc3c(c2c2ncnn12)CCN(CC(F)(F)F)C3 [Example 107] has an IC50 of 100 to 1000 nM. Work on COc1ccc(Cn2c(=O)n3ncnc3c3cc(N4CCC(N(C)C)CC4)cnc32)cc1 [Example 199] yielded an IC50 of 100 to 1000 nM. Molecule O=c1n(Cc2cccc(Cl)c2)c2sc(Cc3ccccc3)cc2c2ncnn12 [Example 9] has an IC50 of 100 to 1000 nM. In the case of COc1ccc(Cn2c(=O)n3ncnc3c3cc(CN4CCNCC4)cnc32)cc1 [Example 249, 6-(4-Methoxybenzyl)-9-(piperazin-1-ylmethyl)pyrido[3,2-e][1,2,4]triazolo[1,5-c]pyrimidin-5(6H)-one], the IC50 is reported as 1000 to 10000 nM. With C[C@@H]1CN(Cc2cnc3c(c2)c2ncnn2c(=O)n3Cc2cc(F)cc(Cl)c2)C[C@H](C)O1 [Example 299] the IC50 was 1000 to 10000 nM. Work on CC(C)CCc1cc2c(s1)n(Cc1ccccc1)c(=O)n1ncnc21 [Example 25] yielded an IC50 of 100 to 1000 nM. In the case of C[C@@H]1CN(Cc2cnc3c(c2)c2ncnn2c(=O)n3Cc2ccc(Cl)cc2)C[C@H](C)O1 [Example 210], the IC50 is reported as 100 to 1000 nM. For COc1ccc(Cn2c(=O)n3ncnc3c3c(C)c(CO)sc32)cc1 [Example 77, 8-(Hydroxymethyl)-6-(4-methoxybenzyl)-9-methylthieno[3,2-e][1,2,4]triazolo[1,5-c]pyrimidin-5(6H)-one], the IC50 was 100 to 1000 nM. COc1ccc(Cn2c(=O)n3ncnc3c3cc(CN4CCN(C)CC4)sc32)cc1 [Example 32] was tested, and the IC50 was 100 to 1000 nM. COc1ccc(Cn2c(=O)n3ncnc3c3cc(N[C@H]4CCCC[C@@H]4N)cnc32)cc1 [Example 194] was tested, and the IC50 was 1000 to 10000 nM. Molecule Cc1ccccc1Cn1c(=O)n2ncnc2c2cc(CN3C[C@@H](C)O[C@@H](C)C3)cnc21 [Example 283] has an IC50 of 1000 to 10000 nM. In the case of COc1c(F)cc(Cn2c(=O)n3ncnc3c3cc(CN4C[C@@H](C)O[C@@H](C)C4)cnc32)cc1F [Example 291], the IC50 is reported as 100 to 1000 nM. Work on COc1ccc(Cn2c(=O)n3ncnc3c3cc(CN4CCN(C(=O)C5CCOC5)CC4)cnc32)cc1 (centres unmarked) [Example 255] yielded an IC50 of 100 to 1000 nM. Work on COc1ccc(Cn2c(=O)n3ncnc3c3c(C)c(CN4CCCC4)sc32)cc1 [Example 43, 6-(4-Methoxybenzyl)-9-methyl-8-(pyrrolidin-1-ylmethyl)thieno[3,2-e][1,2,4]triazolo[1,5-c]pyrimidin-5(6H)-one] yielded an IC50 of 100 to 1000 nM. In the case of COc1ccc(Cn2c(=O)n3ncnc3c3cc(-c4c(C)noc4C)sc32)cc1 [Example 42], the IC50 is reported as 100 to 1000 nM. COc1ccc(Cn2c(=O)n3ncnc3c3cc(CN(C)C)sc32)cc1 [Example 30] gave an IC50 of 100 to 1000 nM. COc1ccc(Cn2c(=O)n3ncnc3c3c(C)c(Br)sc32)cc1 [Example 76, 8-Bromo-6-(4-methoxybenzyl)-9-methylthieno[3,2-e][1,2,4]triazolo[1,5-c]pyrimidin-5(6H)-one] showed an IC50 of 100 to 1000 nM. Molecule Cc1csc2c1c1ncnn1c(=O)n2Cc1ccc(Cl)cc1 [Example 3] has an IC50 of 100 to 1000 nM. For COc1ccc(Cn2c(=O)n3ncnc3c3c4c(sc32)CN(C(=O)C2CCNC2)CC4)cc1 (centres unmarked) [Example 181], the IC50 was 100 to 1000 nM. Molecule COc1ccc(Cn2c(=O)n3ncnc3c3cc(CO)cnc32)cc1 [Example 217, 9-(Hydroxymethyl)-6-(4-methoxybenzyl)pyrido[3,2-e][1,2,4]triazolo[1,5-c]pyrimidin-5(6H)-one] has an IC50 of 100 to 1000 nM. In the case of COc1ccc(Cn2c(=O)n3ncnc3c3c(C)csc32)cc1 [Example 28], the IC50 is reported as 100 to 1000 nM. Molecule COc1ccc(Cn2c(=O)n3ncnc3c3cc(CN4CCN(S(C)(=O)=O)CC4)cnc32)cc1 [Example 252, 6-(4-methoxybenzyl)-9-((4-(methylsulfonyl)piperazin-1-yl)methyl)pyrido[3,2-e][1,2,4]triazolo[1,5-c]pyrimidin-5(6H)-one] has an IC50 of 100 to 1000 nM. In the case of O=c1n(Cc2ccc(Cl)cc2F)c2sc3c(c2c2ncnn12)CCOC3 [Example 94], the IC50 is reported as 100 to 1000 nM. In the case of COc1ccc(Cn2c(=O)n3ncnc3c3c4c(sc32)N(Cc2ccc(Cl)cc2)CCC4)cc1 [Example 152], the IC50 is reported as 100 to 1000 nM. In the case of COc1ccc(Cn2c(=O)n3ncnc3c3c4c(sc32)N(C(=O)c2ccccc2)CCC4)cc1OC [Example 176], the IC50 is reported as 1000 to 10000 nM. COCCN1CCN(c2cnc3c(c2)c2ncnn2c(=O)n3Cc2ccc(OC)cc2)CC1 [Example 197] was tested, and the IC50 was 100 to 1000 nM. COc1ccc(Cn2c(=O)n3ncnc3c3c4c(sc32)CN(CC2CCNCC2)CC4)cc1 [Example 182] was tested, and the IC50 was 100 to 1000 nM. Work on COc1ccc(Cn2c(=O)n3ncnc3c3cc(CCN)cnc32)cc1 [Example 211, 9-(2-Aminoethyl)-6-(4-methoxybenzyl)pyrido[3,2-e][1,2,4]triazolo[1,5-c]pyrimidin-5(6H)-one] yielded an IC50 of 1000 to 10000 nM. O=c1n(Cc2ccc(-c3ccccc3)cc2)c2sc(Cc3ccccc3)cc2c2ncnn12 [Example 18] gave an IC50 of 1000 to 10000 nM. COc1ccc(Cn2c(=O)n3ncnc3c3cc(CN4CCN(C)CC4)cnc32)cc1 [Example 221] was tested, and the IC50 was 100 to 1000 nM. In the case of COc1ccc(Cn2c(=O)n3ncnc3c3cc(CN4C[C@@H](C)O[C@@H](C)C4)cnc32)c(Cl)c1 [Example 296], the IC50 is reported as 100 to 1000 nM. Work on Cc1cc2c(s1)n(Cc1cccc(Cl)c1)c(=O)n1ncnc21 [Example 16] yielded an IC50 of 1000 to 10000 nM. For COc1ccc(Cn2c(=O)n3ncnc3c3ncc(CN4CCSCC4)cc32)cc1 [Example 243], the IC50 was 1000 to 10000 nM. Work on COc1ccc(Cn2c(=O)n3ncnc3c3cc(CN4CCC(OC)CC4)cnc32)cc1 [Example 236] yielded an IC50 of 100 to 1000 nM. O=c1n(Cc2ccc(Cl)cc2)c2ncc(CN3CCOCC3)cc2c2ncnn12 [Example 208] was tested, and the IC50 was 100 to 1000 nM. Work on COc1ccc(Cn2c(=O)n3ncnc3c3nc(N(C)CCN(C)C)cnc32)cc1 [Example 196] yielded an IC50 of 1000 to 10000 nM.

Same assay, conditions: negative log of half-maximal molar inhibitory concentration; 200 nM FAM-cAMP, Calmodulin, CaCl2
For COc1ccc(Cn2c(=O)n3ncnc3c3c4c(sc32)N(CC2CCCOC2)CCC4)cc1 (centres unmarked) [Example 149], the “PDE1B pIC50” value was >7. With COc1ccc(Cn2c(=O)n3ncnc3c3c4c(sc32)CN(CC2CCOCC2)CCC4)cc1 [Example 147] the “PDE1B pIC50” value was >7. COc1ccc(Cn2c(=O)n3ncnc3c3c(C)c(CN4CCN5CCC[C@H]5C4)sc32)cc1 [Example 75] was tested, and the “PDE1B pIC50” value was >7. For Cc1cc2c(s1)n(Cc1ccc(-c3ccccc3)cc1)c(=O)n1ncnc21 [Example 14], the “PDE1B pIC50” value was <5. For C[C@@H]1CN(Cc2cnc3c(c2)c2ncnn2c(=O)n3Cc2cccc(C#N)c2)C[C@H](C)O1 [Example 281], the “PDE1B pIC50” value was <5. For COc1ccc(Cn2c(=O)n3ncnc3c3c4c(sc32)CN(Cc2ncccn2)CC4)cc1 [Example 116], the “PDE1B pIC50” value was >7. For COc1ccc(Cn2c(=O)n3ncnc3c3cc(CN4CCN(S(=O)(=O)N(C)C)CC4)cnc32)cc1 [Example 253], the “PDE1B pIC50” value was >7. With O=c1n(Cc2ccc(Cl)cc2F)c2sc3c(c2c2ncnn12)CCN(Cc1ccccn1)C3 [Example 130] the “PDE1B pIC50” value was >7. In the case of COc1ccc(Cn2c(=O)n3ncnc3c3c(C)c(CN4CCC(O)CC4)sc32)cc1 [Example 47], the “PDE1B pIC50” value is reported as >7. In the case of COc1ccc(Cn2c(=O)n3ncnc3c3c4c(sc32)N(CC2CCOC2)CCC4)cc1 (centres unmarked) [Example 150], the “PDE1B pIC50” value is reported as >7. COc1ccc(Cn2c(=O)n3ncnc3c3c4c(sc32)CN(C(=O)C2CC2)CC4)c(F)c1 [Example 168] was tested, and the “PDE1B pIC50” value was >7. CC(C)CCc1cc2c(s1)n(Cc1ccc(-c3ccccc3)cc1)c(=O)n1ncnc21 [Example 21] was tested, and the “PDE1B pIC50” value was <5. With Cn1ccnc1CN1CCc2c(sc3c2c2ncnn2c(=O)n3Cc2ccc(Cl)cc2F)C1 [Example 131] the “PDE1B pIC50” value was >7. With C[C@@H]1CN(Cc2cnc3c(c2)c2ncnn2c(=O)n3Cc2ccc(N3CCCC3=O)cc2)C[C@H](C)O1 [Example 300] the “PDE1B pIC50” value was <5. With COc1ccc(Cn2c(=O)n3ncnc3c3c4c(sc32)CN(Cc2ccccn2)CC4)cc1 [Example 120] the “PDE1B pIC50” value was >7. COc1ccc(Cn2c(=O)n3ncnc3c3c(C)c(CN4CCOC(C)(C)C4)sc32)cc1 [Example 69] was tested, and the “PDE1B pIC50” value was >7. For COc1ccc(Cn2c(=O)n3ncnc3c3cc(CN4C[C@@H](C)O[C@@H](C)C4)cnc32)c(F)c1 [Example 277], the “PDE1B pIC50” value was >7. COc1ccc(Cn2c(=O)n3ncnc3c3c(C)c(CNCc4cccnc4)sc32)cc1 [Example 52] was tested, and the “PDE1B pIC50” value was >7. For COc1ccc(Cn2c(=O)n3ncnc3c3cc(CN4CCN5C(=O)OCC5C4)sc32)cc1 (centres unmarked) [Example 40], the “PDE1B pIC50” value was >7. COc1ccc(Cn2c(=O)n3ncnc3c3c(C)c(CN4Cc5ccccc5C4)sc32)cc1 [Example 56] was tested, and the “PDE1B pIC50” value was >7. For COc1ccc(Cn2c(=O)n3ncnc3c3c4c(sc32)N(C(=O)C2CC2)CCC4)cc1 [Example 174], the “PDE1B pIC50” value was >7. With COc1ccc(Cn2c(=O)n3ncnc3c3cc(C(N4CCOCC4)C(F)(F)F)cnc32)cc1 (centres unmarked) [Example 272, 6-(4-Methoxybenzyl)-9-(2,2,2-trifluoro-1-morpholinoethyl)pyrido[3,2-e][1,2,4]triazolo[1,5-c]pyrimidin-5(6H)-one] the “PDE1B pIC50” value was >7. With COc1ccc(Cn2c(=O)n3ncnc3c3c(C)c(CN(C)CC4CCOC4)sc32)cc1 (centres unmarked) [Example 59] the “PDE1B pIC50” value was >7. With COc1ccc(Cn2c(=O)n3ncnc3c3c4c(sc32)CN(CC2CCOC2)CC4)c(F)c1 (centres unmarked) [Example 140] the “PDE1B pIC50” value was >7. In the case of COc1ccc(Cn2c(=O)n3ncnc3c3cc(-c4cc(C(F)(F)F)nn4C)sc32)cc1 [Example 41, 6-(4-Methoxybenzyl)-8-(1-methyl-3-(trifluoromethyl)-1H-pyrazol-5-yl)thieno[3,2-e][1,2,4]triazolo[1,5-c]pyrimidin-5(6H)-one], the “PDE1B pIC50” value is reported as >7. In the case of COc1ccc(Cn2c(=O)n3ncnc3c3c4c(sc32)CN(c2ccccn2)CC4)cc1 [Example 179, 6-(4-Methoxybenzyl)-9-(pyridin-2-yl)-8,9,10,11-tetrahydropyrido[4′,3′:4,5]thieno[3,2-e][1,2,4]triazolo[1,5-c]pyrimidin-5(6H)-one], the “PDE1B pIC50” value is reported as >7. With COc1cc(F)c(Cn2c(=O)n3ncnc3c3cc(CN4C[C@@H](C)O[C@@H](C)C4)cnc32)c(F)c1 [Example 287] the “PDE1B pIC50” value was >7.
